Laboratory results taken from patent publication US8551963B2, “Imidazolothiazole compounds and methods of use thereof” (Ambit Biosciences Corporation, priority 2008, dated 2013).
≈ marks a conversion by molar mass, not a printed value. Entries after “also recorded” stand apart in the source; their conditions may differ. Read-outs that look alike come from different tables or passages of the source.

How the values were obtained:
[1] = biological target: FLT3 (K663Q) (Homo sapiens (Human), UniProt P36888, K663Q); assay: biochemical; format: binding
Procedure: Competition binding assays used herein were developed, validated and performed as described in Fabian et al., Nature Biotechnology 2005, 23, 329-336. Kinases were produced as fusions to T7 phage (See, Fabian et al. or WO04/015142) or alternatively, the kinases were expressed in HEK-293 cells and subsequently tagged with DNA for PCR detection (See, WO08/005,310). […] The liganded beads were blocked with excess biotin and washed with blocking buffer (SeaBlock (Pierce), 1% BSA, 0.05% Tween 20, 1 mM DTT) to remove unbound ligand and to reduce non-specific binding. […] Test compounds were prepared as 100× stocks in DMSO and rapidly diluted into the aqueous environment. DMSO was added to control assays lacking a test compound. […] The kinase concentration in the eluates was measured by quantitative PCR. Each kinase was tested individually against each compound. Kds were determined using eleven serial threefold dilutions.

[2] = biological target: CYP1A2 (Homo sapiens (Human), UniProt P05177); assay: Cyp enzyme inhibition assay in human liver microsomes, CYP1A2; format: in vitro ADME; conditions: CYP1A2, substrate phenacetin
Chain of CYP1A2 (P05177 whole entry): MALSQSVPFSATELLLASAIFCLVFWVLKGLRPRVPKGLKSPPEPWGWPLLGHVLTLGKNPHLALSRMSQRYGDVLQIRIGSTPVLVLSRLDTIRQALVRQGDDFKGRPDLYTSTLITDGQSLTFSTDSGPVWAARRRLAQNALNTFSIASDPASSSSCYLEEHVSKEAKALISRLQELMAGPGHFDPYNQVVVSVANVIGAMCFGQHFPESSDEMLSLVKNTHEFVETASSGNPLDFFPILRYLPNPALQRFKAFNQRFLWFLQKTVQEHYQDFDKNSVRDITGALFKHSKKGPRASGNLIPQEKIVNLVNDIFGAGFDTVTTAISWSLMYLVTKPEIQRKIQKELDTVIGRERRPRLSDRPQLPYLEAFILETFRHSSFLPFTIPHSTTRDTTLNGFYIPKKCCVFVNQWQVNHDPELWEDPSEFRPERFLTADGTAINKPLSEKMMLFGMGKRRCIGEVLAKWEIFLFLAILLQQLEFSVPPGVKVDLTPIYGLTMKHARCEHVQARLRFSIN
Procedure: (§1) The ability of the compound I-1 to inhibit human metabolizing enzymes CYP3A4, CYP2C9, […], CYP2C19 and CYP1A2, was assessed using those enzymes found collectively in human liver microsomes. The test compound I-1 was prepared as a solution in DMSO or acetonitrile and plated in duplicate rows of a 96-well plate (Nunc) for a final assay concentration of 40 μM in 0.2% DMSO (or 2% acetonitrile) in the first column and serially diluted two-fold going down the row. A known selective inhibitor of a given CYP enzyme listed in Table 8 was selected as the appropriate positive control. For each CYP enzyme inhibition assay, an appropriate enzyme-substrate mixture was prepared to afford a final assay concentration of 75 mM KPO4/pH 7.4, 6.5 mM MgCl2, 0.25 mg/mL pooled male and female human liver microsome (CellzDirect lot HMMC-PL020) with the amounts of the appropriate substrate for each CYP enzyme assay given in Table 8. The enzyme-substrate mixture was added to columns 1 through 10 and column 11 served as a negative control with enzyme solution lacking substrate. A solution of NADPH (Calbiochem) was then added to all rows except for one where NADPH would be added after the incubation period, in order to detect NADPH-independent non-CYP-mediated metabolism. The plate was briefly vortexed and left to shake in a 37° C. water bath for 20 minutes. […]

[3] = Aqueous and surfactant solubility; format: physicochemical; conditions: kinetic from dmso stock, room temperature overnight
Procedure: After equilibration at room temperature overnight the solutions were filtered and solute concentration determined by fast gradient HPLC without further dilution of the samples. […] These analytical standards were prepared from a 500 μM intermediate stock solution made by diluting 10 μl of the 10 mM sample stocks into 190 μl of 50:50 (v/v) acetonitrile/water. Aliquots of this solution were transferred in duplicate into a 96 well plate in the amounts of 0.4, 2, 4, 20, 40, and 100 μl with the volumes made up to 200 total μl with acetonitrile/water and the plate was then heat sealed with a foil sheet. Prior to sample filtration, filters were primed with 600 μl of sample to resolve potential adsorption problems. Both sample replicates were collected through the primed filter. Duplicate determinations were made in all cases.

[4] = biological target: CYP2C8 (Homo sapiens (Human), UniProt P10632); assay: Time dependant inhibition in human liver microsomes, CYP2C8; format: in vitro ADME
Chain of CYP2C8 (P10632 whole entry, canonical isoform): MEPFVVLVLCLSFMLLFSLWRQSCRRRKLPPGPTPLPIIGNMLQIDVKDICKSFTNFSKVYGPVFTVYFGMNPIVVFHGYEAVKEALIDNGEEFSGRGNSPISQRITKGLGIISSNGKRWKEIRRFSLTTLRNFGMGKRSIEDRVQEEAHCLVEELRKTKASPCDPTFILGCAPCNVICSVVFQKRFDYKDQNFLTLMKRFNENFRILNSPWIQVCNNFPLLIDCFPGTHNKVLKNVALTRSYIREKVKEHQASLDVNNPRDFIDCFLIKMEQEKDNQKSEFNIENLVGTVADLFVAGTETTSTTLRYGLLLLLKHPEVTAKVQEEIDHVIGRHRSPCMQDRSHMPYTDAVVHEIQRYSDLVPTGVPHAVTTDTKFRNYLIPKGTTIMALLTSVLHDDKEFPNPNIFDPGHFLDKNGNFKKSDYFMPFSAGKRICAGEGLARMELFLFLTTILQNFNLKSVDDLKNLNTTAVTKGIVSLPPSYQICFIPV
Procedure: For each CYP isoform tested, 10 μM Compound I-1 was pre-incubated with pooled male and female human liver microsomes with NADPH in a 37° C. shaking water bath in duplicate to afford a final pre-incubation assay concentration of 100 mM KPO4/pH 7.4, 10 mM MgCl2, 2 mg/mL of human liver microsome (CellzDirect lot HLM HMMC-PL020) and 1 mM NADPH (Calbiochem). At each pre-incubation time point (0, 5, 10, 20, and 30 minutes) 20 μL was removed and placed in a second 96 well plate on ice. After all pre-incubation time points were collected 180 uL of additional human microsome liver preparation containing the appropriate CYP specific substrate at its Km concentration listed in Table 11 plus NADPH, was added to each time point. The samples were incubated for an additional 10 minutes in a 37° C. shaking water bath and then quenched with 75:25 acetonitrile (ACN):water containing the appropriate internal standards listed in Table 11. After brief mixing, the plate was centrifuged and the supernatant removed for analysis by LC/MS/MS (API 4000 Qtrap) for the formation of 6-hydroxy-testosterone (CYP3A4), 4-hydroxy-mephenyloin (CYP2C19), or 6-hydroxy-taxol (CYP2C8). […] Consistent with Example 5, Compound I-1 did inhibit CYP2C8-mediated metabolite formation at 10 μM, but not in a time dependent manner.

[5] = biological target: T1, CYP3A4 (Homo sapiens (Human), UniProt P08684); assay: Inhibitory constant KI in human liver microsomes, CYP3A4; format: in vitro ADME; conditions: CYP3A4, global non-linear regression
T1 sequence (P08684 whole entry): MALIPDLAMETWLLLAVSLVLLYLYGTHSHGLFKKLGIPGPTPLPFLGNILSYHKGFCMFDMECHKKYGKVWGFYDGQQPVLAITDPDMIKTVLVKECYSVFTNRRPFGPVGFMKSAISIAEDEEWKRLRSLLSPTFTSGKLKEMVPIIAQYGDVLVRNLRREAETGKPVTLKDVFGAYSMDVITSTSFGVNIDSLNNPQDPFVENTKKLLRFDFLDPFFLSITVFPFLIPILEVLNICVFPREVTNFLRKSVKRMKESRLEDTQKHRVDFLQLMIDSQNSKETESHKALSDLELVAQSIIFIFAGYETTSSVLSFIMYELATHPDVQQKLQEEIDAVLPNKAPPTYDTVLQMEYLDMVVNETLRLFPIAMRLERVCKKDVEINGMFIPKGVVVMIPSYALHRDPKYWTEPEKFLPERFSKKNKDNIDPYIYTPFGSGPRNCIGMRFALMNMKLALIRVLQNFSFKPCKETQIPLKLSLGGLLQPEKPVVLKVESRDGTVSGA
Procedure: (§2) A 2 mM stock of Compound I-1 was prepared in acetonitrile (ACN) and serially diluted 2-fold from 2000 μM to 15.63 μM in ACN. […] Individual human liver microsome preparations containing the substrate were then incubated with Compound I-1 (final concentration range 40 μM to 0.31 μM of Compound I-1) for a final incubation concentration of 0.5 mg/mL microsome, 75 mM KPO4, 6.5 mM MgCl2, 1 mM NADPH and 2% acetonitrile (ACN). The samples were incubated in a 37° C. shaking water bath for 20 minutes then quenched with ACN:water (75:25) containing internal standards propranolol at 0.3 ng/mL and cortisone at 0.3 ng/mL. After brief mixing, the plate was centrifuged and the supernate removed for analysis by LC/MS/MS (API 4000 Qtrap) for formation of 6-hydroxy-testosterone (CYP3A4), 4-hydroxy-mephenyloin (CYP2C19) or hydroxy-taxol (CYP2C8). The data was analyzed using global non-linear regression software (GraphPad Prism) and the overall fit of the data (R^2) was used to determine if Compound I-1 was a competitive, non-competitive, or uncompetitive inhibitor. In addition the data was plotted as a Lineweaver-Burke graph (1/V versus 1/S, where V is the […] and S is the substrate concentration) for each inhibitor concentration. Based on the location of convergence (competitive and non-competitive) or non convergence (uncompetitive) of the plots at each inhibitor concentration, the type of inhibition was determined.
(§3) Global non-linear regression allows analysis of all the individual inhibitor curves simultaneously and determines the best fit value for shared parameters between the data sets, in this case KI (or KI′). The results of the global nonlinear analysis of Compound I-1 inhibition of the CYP450 isoforms 3A4, 2C19 and 2C8 are shown in Table 12.

[6] = biological target: CYP2C9 (Homo sapiens (Human), UniProt P11712); assay: Cyp enzyme inhibition assay in human liver microsomes, CYP2C9; format: in vitro ADME; conditions: CYP2C9, substrate Diclofenac
Chain of CYP2C9 (P11712 whole entry): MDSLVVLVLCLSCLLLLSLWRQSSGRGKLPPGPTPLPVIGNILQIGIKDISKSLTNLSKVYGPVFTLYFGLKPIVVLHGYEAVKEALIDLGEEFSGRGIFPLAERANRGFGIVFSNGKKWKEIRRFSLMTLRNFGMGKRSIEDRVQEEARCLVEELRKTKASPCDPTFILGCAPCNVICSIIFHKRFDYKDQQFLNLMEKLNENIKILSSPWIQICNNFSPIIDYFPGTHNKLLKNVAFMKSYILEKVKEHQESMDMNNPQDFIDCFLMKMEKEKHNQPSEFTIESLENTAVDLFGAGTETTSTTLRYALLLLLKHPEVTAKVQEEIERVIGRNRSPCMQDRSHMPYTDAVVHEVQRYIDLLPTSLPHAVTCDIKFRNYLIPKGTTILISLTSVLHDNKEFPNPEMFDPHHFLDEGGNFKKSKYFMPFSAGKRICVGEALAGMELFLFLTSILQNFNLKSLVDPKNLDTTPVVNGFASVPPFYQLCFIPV
Procedure: as §1

[7] = biological target: CYP2C19 (Homo sapiens (Human), UniProt P33261); assay: Inhibitory constant KI in human liver microsomes, CYP2C19; format: in vitro ADME; conditions: for Ki: CYP2C19, global non-linear regression
Chain of CYP2C19 (P33261 whole entry): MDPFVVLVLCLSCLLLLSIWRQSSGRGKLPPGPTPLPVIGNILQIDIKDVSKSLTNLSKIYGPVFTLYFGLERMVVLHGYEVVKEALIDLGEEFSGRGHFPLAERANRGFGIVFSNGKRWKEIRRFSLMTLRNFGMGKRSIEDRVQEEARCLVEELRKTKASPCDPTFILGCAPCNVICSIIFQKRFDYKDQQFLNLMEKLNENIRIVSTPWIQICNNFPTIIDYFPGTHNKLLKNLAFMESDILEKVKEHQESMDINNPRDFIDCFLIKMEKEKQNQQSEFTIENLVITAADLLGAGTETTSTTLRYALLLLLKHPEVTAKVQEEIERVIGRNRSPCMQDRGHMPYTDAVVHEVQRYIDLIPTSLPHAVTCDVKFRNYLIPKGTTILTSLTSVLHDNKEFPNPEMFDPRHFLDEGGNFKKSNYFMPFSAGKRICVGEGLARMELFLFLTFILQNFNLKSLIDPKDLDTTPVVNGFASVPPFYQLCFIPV
Procedure: as §2, §3

[8] = biological target: CYP2D4 (Homo sapiens, UniProt P10635); assay: Cyp enzyme inhibition assay in human liver microsomes, CYP2D4; format: in vitro ADME; conditions: both sexes, pooled human liver microsomes, pH 7.4, probe dextromethorphan, CYP2D4, substrate dextromethorphan
Chain of CYP2D4 (P10635 whole entry, looked up): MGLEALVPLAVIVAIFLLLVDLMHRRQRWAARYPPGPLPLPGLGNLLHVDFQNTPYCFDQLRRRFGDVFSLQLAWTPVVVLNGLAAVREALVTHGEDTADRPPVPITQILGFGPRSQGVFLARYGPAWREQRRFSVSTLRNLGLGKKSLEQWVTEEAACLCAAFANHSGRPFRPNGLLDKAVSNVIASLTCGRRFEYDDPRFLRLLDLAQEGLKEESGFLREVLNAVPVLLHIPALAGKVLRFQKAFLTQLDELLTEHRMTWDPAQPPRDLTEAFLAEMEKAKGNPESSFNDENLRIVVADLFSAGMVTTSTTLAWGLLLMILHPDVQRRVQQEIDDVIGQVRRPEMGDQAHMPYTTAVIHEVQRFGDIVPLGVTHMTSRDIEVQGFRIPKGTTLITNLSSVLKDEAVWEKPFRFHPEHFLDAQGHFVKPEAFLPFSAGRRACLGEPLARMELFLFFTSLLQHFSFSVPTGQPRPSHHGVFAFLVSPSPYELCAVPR
Procedure: as §1

[9] = biological target: T1, CYP3A4; assay: Cyp enzyme inhibition assay in human liver microsomes, CYP3A4; format: in vitro ADME; conditions: CYP3A4, substrate testosterone
Procedure: as §1

[10] = read-out: Best Fit KI, Competitive
[11] = read-out: Best Fit KI, Non-competitive
[12] = read-out: Best Fit KI′, Uncompetitive

Question: Which results are given for `CC(C)(CO)c1cc(NC(=O)Nc2ccc(-c3cn4c(n3)sc3cc(OCCN5CCOCC5)ccc34)cc2)no1` [Compound I-1, 1-[5-(2-hydroxy-1,1-dimethyl-ethyl)-isoxazol-3-yl]-3-{4-[7-(2-morpholin-4-yl-ethoxy)-benzo[d]imidazo[2,1-b]thiazol-2-yl]-phenyl}-urea]?
Answer: Kd [1]: 0.00069 µM; IC50 [2]: > 40 µM; solubility ([3]; HBSS buffer with 0.05% Polysorbate 80, pH 7.4, aqueous with cosolvent or surfactant or cyclodextrin, HBSS containing 0.05% Polysorbate 80, 2.5% DMSO, read-out: Average Aqueous Solubility, 0.05% Polysorbate 80): 2 µM (≈ 1.15 µg/mL); solubility ([3]; Hank's balanced salt solution (HBSS) buffer, aqueous buffer, HBSS pH 7.4, 2.5% DMSO, read-out: Average Aqueous Solubility, pH 7.4): < 1 µM; Inhibition of CYP2C8-mediated metabolite formation ([4]; 10 μM): did inhibit; Time dependant inhibition ([4]; CYP2C8, 10 μM, pre-incubation 0-30 minutes): not a time dependant inhibitor; Ki [5, 10]: 13.1 µM; Ki [5, 11]: 48.9 µM; Ki [5, 12]: 36 µM; IC50 [6]: > 40 µM; Type of inhibition ([7]; CYP2C19): non-competitive inhibition; also recorded: weak non-competitive inhibitor; Ki [7, 10]: 1.7 µM; Ki [7, 11]: 10.4 µM; Ki [7, 12]: 7.4 µM; IC50 at 20 min [8]: > 40 µM; IC50 [9]: > 40 µM
